Read-outs that look alike come from different tables or passages of the source.
Tests used:
[1] = molecular target: N-terminally truncated recombinant hDHODH enzyme (Homo sapiens, UniProt Q02127); assay: biochemical; assay type: biochemical
Description: Briefly, the hDHODH concentration was adjusted in a way that an average slope of approximately 0.2 AU/min served as the positive control (e.g. without inhibitor). The standard assay mixture contained 60 μM 2,6-dichloroindophenol, 50 μM decylubiquinone and 100 μM dihydroorotate. The hDHODH enzyme with or without at least six different concentrations of the compounds was added and measurements were performed in 50 mM TrisHCl, 150 mM KCl and 0.1% Triton X-100 at pH 8.0 and at 30° C. The reaction was started by adding dihydroorotate and measuring the absorption at 600 nm for 2 min. For the determination of the IC50 values, each data point was recorded in triplicate. […].

SARS-CoV-2 = SARS-CoV-2 viral replication (YFP) assay; assay type: cell-based; conditions: Severe acute respiratory syndrome coronavirus 2, read-out: EC50 range
[2] = human DHODH assay, read-out: IC50 range

N-terminally truncated recombinant hDHODH enzyme, sequence (Q02127 whole entry, looked up, the tested form may be a part): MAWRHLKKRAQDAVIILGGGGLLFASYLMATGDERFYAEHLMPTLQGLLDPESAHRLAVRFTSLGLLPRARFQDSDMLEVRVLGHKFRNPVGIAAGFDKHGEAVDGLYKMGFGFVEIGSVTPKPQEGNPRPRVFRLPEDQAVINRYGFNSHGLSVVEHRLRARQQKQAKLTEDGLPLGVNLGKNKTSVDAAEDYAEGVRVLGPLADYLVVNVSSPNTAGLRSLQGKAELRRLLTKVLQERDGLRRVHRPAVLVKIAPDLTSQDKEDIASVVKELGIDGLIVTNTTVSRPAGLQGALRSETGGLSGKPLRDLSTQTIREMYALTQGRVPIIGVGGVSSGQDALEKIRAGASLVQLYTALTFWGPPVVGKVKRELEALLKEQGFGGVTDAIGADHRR

Row | Structure (SMILES) | IC50 [1, 2] | EC50 (SARS-CoV-2) | IC50 [1]
1 | [2H]C([2H])([2H])Oc1cccc(-c2cc(F)c(NC(=O)C3=C(C(=O)NS(=O)(=O)C4(C)CC4)CCC3)c(F)c2)c1 [1/2] | > 10 µM | 10 to 25 µM | 
2 | [2H]C([2H])([2H])Oc1cccc(-c2cc(F)c(NC(=O)C3=C(C(=O)NS(=O)(=O)C(F)F)CCC3)c(F)c2)c1 [1/3] |  | 25 to 50 µM | 1 to 10 µM
3 | [2H]C([2H])([2H])Oc1cccc(-c2cc(F)c(NC(=O)C3=C(C(=O)NS(C)(=N)=O)CCC3)c(F)c2)c1 (stereo not shown) [1/4] | < 0.1 µM | > 50 µM | 
4 | [2H]C([2H])([2H])C([2H])([2H])Oc1cccc(-c2cc(F)c(NC(=O)C3=C(C(=O)NS(C)(=O)=O)CCC3)c(F)c2)c1 [1/5] | < 0.1 µM | < 10 µM | 
5 | [2H]C([2H])([2H])Oc1ccccc1-c1cc(F)c(NC(=O)C2=C(C(=O)NS(C)(=O)=O)CCC2)c(F)c1 [1/6] | < 0.1 µM | 25 to 50 µM | 
6 | [2H]c1c([2H])c(-c2cccc(OC([2H])([2H])[2H])c2)c([2H])c(C([2H])([2H])[2H])c1NC(=O)C1=C(C(=O)NS(C)(=O)=O)CCC1 [1/8] |  |  | 1 to 10 µM
7 | [2H]C([2H])([2H])Oc1ccccc1-c1c(F)c(F)c(NC(=O)C2=C(C(=O)NS(C)(=O)=O)CCC2)c(F)c1F [1/9] | < 0.1 µM |  | 
8 | [2H]C([2H])([2H])Oc1cccc(-c2c(F)c(F)c(NC(=O)C3=C(C(=O)NS(C)(=O)=O)COC3)c(F)c2F)c1 [1/10] |  |  | 0.1 to 1 µM
9 | [2H]C([2H])([2H])Oc1cccc(-c2ccc(NC(=O)C3=C(C(=O)NS(C)(=O)=O)CCC3)c(F)c2)c1 [1/11] |  |  | 0.1 to 1 µM
10 | [2H]C([2H])([2H])Oc1cccc(-c2c(F)c(F)c(NC(=O)C3=C(C(=O)NS(C)(=O)=O)CC(F)(F)C3)c(F)c2F)c1 [1/12] | < 0.1 µM | < 1 µM | 
11 | [2H]C([2H])([2H])Oc1cccc(-c2c(F)c(F)c(NC(=O)c3cscc3C(=O)NS(C)(=O)=O)c(F)c2F)c1 [1/14] |  | > 50 µM | 
12 | [2H]C([2H])([2H])Oc1cccc(-c2cc(F)c(NC(=O)C3=C(C(=O)NS(=O)(=O)N(C)C)CCC3)c(F)c2)c1 [2/2] | > 10 µM | 10 to 25 µM | 
13 | [2H]C([2H])([2H])Oc1cccc(-c2cc(F)c(NC(=O)C3=C(C(=O)NS(=O)(=O)NC)CCC3)c(F)c2)c1 [2/3] |  | 10 to 25 µM | 0.1 to 1 µM
14 | [2H]C([2H])([2H])Oc1ccccc1-c1c(F)c(F)c(NC(=O)C2=C(C(=O)NS(N)(=O)=O)CCC2)c(F)c1F [2/4] | < 0.1 µM | < 10 µM | 
15 | [2H]C([2H])([2H])Oc1cccc(-c2c(F)c(F)c(NC(=O)C3=C(C(=O)NS(N)(=O)=O)CC(F)(F)C3)c(F)c2F)c1 [2/5] | < 0.1 µM | < 1 µM | 
16 | [2H]C([2H])([2H])Oc1cccc(-c2c(F)c(F)c(NC(=O)c3cscc3C(=O)NS(N)(=O)=O)c(F)c2F)c1 [2/6] | < 0.1 µM | < 10 µM | 
17 | [2H]C([2H])([2H])Oc1cccc(-c2cc(F)c(NC(=O)C3=C(C(=O)NOCCF)CCC3)c(F)c2)c1 [4/2] |  | < 10 µM | 0.1 to 1 µM
18 | [2H]C([2H])([2H])ONC(=O)C1=C(C(=O)Nc2c(F)cc(-c3cccc(OC([2H])([2H])[2H])c3)cc2F)CCC1 [4/4] |  | < 10 µM | 
19 | [2H]C([2H])([2H])Oc1cccc(-c2ccc(NC(=O)C3=C(C(=O)NOC)CCC3)n3ccnc23)c1 [4/8] | > 10 µM |  | 
20 | [2H]C([2H])([2H])Oc1cccc(-c2cc(F)c(NC(=O)C3=C(C(=O)NOCC)CCC3)c(F)c2)c1 [4/9] |  | < 10 µM | 1 to 10 µM
21 | [2H]C([2H])([2H])Oc1cccc(-c2ccc(NC(=O)C3=C(C(=O)NOC)CCC3)c3cnccc23)c1 [4/11] | > 10 µM | 25 to 50 µM | 
22 | [2H]C([2H])([2H])Oc1cccc(-c2ccc(NC(=O)C3=C(C(=O)NOC)CCC3)c3ccccc23)c1 [4/12] | > 10 µM | < 10 µM | 
23 | CONC(=O)C1=C(C(=O)Nc2c(F)cc(-c3cccc4c3OCO4)cc2F)CCC1 [4/13] |  | < 10 µM | 1 to 10 µM
24 | CONC(=O)C1=C(C(=O)Nc2c(F)cc(-c3cccc4ocnc34)cc2F)CCC1 [4/14] |  | < 10 µM | 1 to 10 µM
25 | [2H]C([2H])([2H])Oc1cccc(-c2cc(F)c(NC(=O)C3=C(C(=O)NC#N)CCC3)c(F)c2)c1 [4/15] |  | 10 to 25 µM | 
26 | [2H]C([2H])([2H])ONC(=O)C1=C(C(=O)Nc2c(F)c(F)c(-c3cccc(OC([2H])([2H])[2H])c3)c(F)c2F)CCC1 [4/22] | < 0.1 µM | < 1 µM | 
27 | [2H]C([2H])([2H])Oc1cccc(-c2c(F)c(F)c(NC(=O)C3=C(C(=O)NOCCO)CCC3)c(F)c2F)c1 [4/23] | < 0.1 µM | < 1 µM | 

— patent US20250066290A1, “DHODH INHIBITORS CONTAINING A CARBOXYLIC ACID BIOISOSTERE” (IMMUNIC AG, priority 2021, published 2025)
